Here are results for four molecules from patent publication USRE45272E1, “β-glucuronide-linker drug conjugates” (priority 2005, dated 2014).

Common to all, as to type: cell-based
For series [1], the system named is 786-O (CD70+, CD30−) renal cell carcinoma cells. Kind of series: In vitro growth inhibition (resazurin), 786-O. As for the experimental part: (§1) In vitro growth inhibition. Cells were collected and plated in 96 well black-sided plates at a density of 10,000 cells/well in 150 μL of medium. Serial dilutions of the ADC (50 μL) were added, and incubation was carried out for 92 h at 37° C. After addition of ADC, cultures were incubated to 96 h at 37° C. Resazurin (0.25 mM, 50 μL, Sigma, St. Louis, Mo.) in medium was added and incubation was continued for 4 h. The plates were read on a Fusion HT microplate reader (Packard, Meriden, Conn.) using an excitation wavelength of 525 nm and an emission wavelength of 590 nm. Data from all assays were reduced using GraphPad Prism Version 4 for Windows (GraphPad Software, San Diego, Calif.). The IC50 concentrations compared to untreated control cells were determined using a 4 parameter curve fits.
(In general: Resazurin is reduced to fluorescent resorufin, in cell work by metabolically active cells.)

For series [2], the system named is Caki-1, 786-O and Karpas 299 cell lines. Kind of series: In vitro cytotoxicity, statements across Caki-1, 786-O and Karpas 299. Conditions: for IC50: read-out: IC50 on Caki-1, 786-O and Karpas 299 (all lines). As for the experimental part: as §1
Results. […] The negative charge associated with the carboxylate group of 1b leads to reduced cytotoxic activity, presumably due to impaired intracellular access.
The ADCs of 9b effectively delivered 1b to the targeted cells. […] Conjugates of doxorubicin drug-linker 17 gave the same general profile with effective cell kill on antigen positive cell lines and specificity values >16-fold.

Series [3] has as its system Karpas 299 (CD30+, CD70−) ALCL cells. Kind of series: In vitro growth inhibition (resazurin), Karpas 299. The procedure:
as §1

In series [4] the test system is Caki-1 (CD70+, CD30−) renal cell carcinoma cells. Kind of series: In vitro growth inhibition (resazurin), Caki-1. The procedure:
as §1

Where [5] appears, read: 96 h exposure, resazurin metabolism, vs untreated cells, drug content, read-out: 786-O (CD70+, CD30−) IC50 drug.
Setting [6] is: 96 h exposure, resazurin metabolism, vs untreated cells, drug content, read-out: Karpas 299 (CD30+, CD70−) IC50 drug.
The mark [7] stands for this setting: 96 h exposure, resazurin metabolism, vs untreated cells, drug content, read-out: Caki-1 (CD70+, CD30−) IC50 drug.

Structures can show the parent of a compound that is named as a salt. Where two headings read alike, the source gives them in different places. Square brackets hold non-standard residues; d marks the D form. Peptide text beside a SMILES is read from it. * marks the point of attachment. Dolaproine = CO[C@@H]([C@@H]1CCCN1)[C@@H](C)C(=O)O; Dil = CC[C@H](C)[C@H](NC)[C@@H](CC(=O)O)OC; X1 = C[C@@H](N*)[C@@H](O)c1ccccc1; NMeV = CN[C@H](C(=O)O)C(C)C A value given as a limit tells only on which side of the number the result lay.

By IC50 is commonly meant the concentration that gives 50% inhibition. Regarding `CC[C@H](C)[C@@H]([C@@H](CC(=O)N1CCC[C@H]1[C@H](OC)[C@@H](C)C(=O)N[C@@H](Cc1ccccc1)C(=O)O)OC)N(C)C(=O)[C@@H](NC(=O)[C@@H](NC)C(C)C)C(C)C` [Compound 1b, N-methylvaline-valine-dolaisoleuine-dolaproine-phenylalanine] (HELM PEPTIDE1{[meV].V.[CC[C@H](C)[C@@H]([C@@H](CC(=O)[*:2])OC)N(C)[*:1]].[CO[C@H]([C@@H](C)C(=O)[*:2])[C@@H]1CCCN1[*:1]].F}$$$$V2.0), the IC50 is 300 nM in series [1] (setting [5]), 100 to 200 nM in series [2] (statement for all three cell lines), 100 nM in series [3] (setting [6]) and 270 nM in series [4] (setting [7]).
On to `COc1cccc2c1C(=O)c1c(O)c3c(c(O)c1C2=O)C[C@@](O)(C(=O)CO)C[C@@H]3O[C@H]1C[C@H](N)[C@H](O)[C@H](C)O1` [Compound 15, doxorubicin-HCl], for which the IC50 in series [1] (Homo sapiens, 786-0, 96 h exposure, resazurin metabolism, vs untreated cells, drug content, read-out: 786-O (CD70+, CD30−) IC50 drug) is 65 nM; in series [3] (Homo sapiens, KARPAS-299, 96 h exposure, resazurin metabolism, vs untreated cells, drug content, read-out: Karpas 299 (CD30+, CD70−) IC50 drug), 29 nM; in series [4] (Homo sapiens, CAKI-1, 96 h exposure, resazurin metabolism, vs untreated cells, drug content, read-out: Caki-1 (CD70+, CD30−) IC50 drug), 110 nM.
In the case of `CC[C@H](C)[C@@H]([C@@H](CC(=O)N1CCC[C@H]1[C@H](OC)[C@@H](C)C(=O)N[C@H](C)[C@@H](O)c1ccccc1)OC)N(C)C(=O)[C@@H](NC(=O)[C@@H](NC)C(C)C)C(C)C` [Compound 1a, monomethyl auristatin E] (H-[NMeV]V[Dil][Dolaproine]-X1), the IC50 stood at 0.19 nM in series [1] (setting [5]), 0.09 nM in series [3] (setting [6]) and 0.11 nM in series [4] (setting [7]).
Consider `COc1cccc2c1C(=O)c1c(O)c3c(c(O)c1C2=O)C[C@@](O)(C(=O)CO)CC3OC1CC(NCCCC(OC(C)=O)OC(C)=O)C(O)C(C)O1` (stereo partly drawn) [Compound 18], for which the IC50 in series [1] (Homo sapiens, 786-0, 96 h, read-out: 786-O (CD70+, CD30−) IC50 drug nM) is 0.01 nM; in series [2], < 0.2 nM; in series [3] (Homo sapiens, KARPAS-299, 96 h, read-out: Karpas 299 (CD30+, CD70−) IC50 drug nM), 0.1 nM; in series [4] (Homo sapiens, CAKI-1, 96 h, read-out: Caki-1 (CD70+, CD30−) IC50 drug nM), 0.04 nM. The “fold more cytotoxic than doxorubicin (15)” value in series [2] (across Caki-1, 786-O, Karpas 299) is 300-6500 fold.
